Values quoted from earlier work as cited in PMC2981068 (Journal of medicinal chemistry, 2010).
Marks after values point to notes of the source that are not given here.

Experiments:
[1] = tested on: E. faecalis (VanA, strain BM4166), vancomycin- and teicoplanin-resistant; conditions: footnotes d, ref [7]–[8], [4]
[2] = tested on: E. faecalis (VanB, strain ATCC 51299), vancomycin-resistant and teicoplanin-sensitive; conditions: footnotes d, ref [7]–[8], [4]
[3] = tested on: Enterocococci bacterial strains (VanA and VanB); conditions: resistant vs sensitive bacteria; ref [1d]
[4] = tested on: Staphylococcus aureus (strain ATCC 25923), vancomycin-sensitive; conditions: reference not given, ref [1a],[6] as in b5
[5] = computationally determined, relative to 2 with ligand 3; ref [11]

Substance	MIC E. faecalis (VanA) (value in parentheses) [1]	MIC E. faecalis (VanB) (value in parentheses) [2] [µg/mL]	drop in antimicrobial activity on D-Ala to D-Lac change [3] [fold]	MIC for sensitive strain (comparator in text) [4] [µg/mL]	ΔΔGb cal, ligand 3 [5]
Vancomycin [Compound 1]	2000 (2000) ^e μg/mL	125	1000		
chlorobiphenyl vancomycin [Compound 8]				0.03	
vancomycin aglycon [Compound 2]	640 (640) ^d, ^e μg/mL	80			0.0 (0.0) ^d kcal/mol
